How the values were obtained:
ΔF508-CFTR [1] = molecular target: T1, ΔF508-CFTR (Homo sapiens, UniProt P13569, DEL508-508); assay: hBE equivalent current (Ieq) assay; type: cell-based; conditions: AUC of equivalent chloride current, primary hBE homozygous ΔF508, 24 h treatment
T1 construct: Primary lung epithelial cells homozygous for the Cystic Fibrosis-causing ΔF508 mutation; endogenous in cells; host or cells: primary human lung (bronchial) epithelial cells homozygous for ΔF508, differentiated at air-liquid interface
T1 sequence (P13569 with tags, fused parts or gaps DEL508-508): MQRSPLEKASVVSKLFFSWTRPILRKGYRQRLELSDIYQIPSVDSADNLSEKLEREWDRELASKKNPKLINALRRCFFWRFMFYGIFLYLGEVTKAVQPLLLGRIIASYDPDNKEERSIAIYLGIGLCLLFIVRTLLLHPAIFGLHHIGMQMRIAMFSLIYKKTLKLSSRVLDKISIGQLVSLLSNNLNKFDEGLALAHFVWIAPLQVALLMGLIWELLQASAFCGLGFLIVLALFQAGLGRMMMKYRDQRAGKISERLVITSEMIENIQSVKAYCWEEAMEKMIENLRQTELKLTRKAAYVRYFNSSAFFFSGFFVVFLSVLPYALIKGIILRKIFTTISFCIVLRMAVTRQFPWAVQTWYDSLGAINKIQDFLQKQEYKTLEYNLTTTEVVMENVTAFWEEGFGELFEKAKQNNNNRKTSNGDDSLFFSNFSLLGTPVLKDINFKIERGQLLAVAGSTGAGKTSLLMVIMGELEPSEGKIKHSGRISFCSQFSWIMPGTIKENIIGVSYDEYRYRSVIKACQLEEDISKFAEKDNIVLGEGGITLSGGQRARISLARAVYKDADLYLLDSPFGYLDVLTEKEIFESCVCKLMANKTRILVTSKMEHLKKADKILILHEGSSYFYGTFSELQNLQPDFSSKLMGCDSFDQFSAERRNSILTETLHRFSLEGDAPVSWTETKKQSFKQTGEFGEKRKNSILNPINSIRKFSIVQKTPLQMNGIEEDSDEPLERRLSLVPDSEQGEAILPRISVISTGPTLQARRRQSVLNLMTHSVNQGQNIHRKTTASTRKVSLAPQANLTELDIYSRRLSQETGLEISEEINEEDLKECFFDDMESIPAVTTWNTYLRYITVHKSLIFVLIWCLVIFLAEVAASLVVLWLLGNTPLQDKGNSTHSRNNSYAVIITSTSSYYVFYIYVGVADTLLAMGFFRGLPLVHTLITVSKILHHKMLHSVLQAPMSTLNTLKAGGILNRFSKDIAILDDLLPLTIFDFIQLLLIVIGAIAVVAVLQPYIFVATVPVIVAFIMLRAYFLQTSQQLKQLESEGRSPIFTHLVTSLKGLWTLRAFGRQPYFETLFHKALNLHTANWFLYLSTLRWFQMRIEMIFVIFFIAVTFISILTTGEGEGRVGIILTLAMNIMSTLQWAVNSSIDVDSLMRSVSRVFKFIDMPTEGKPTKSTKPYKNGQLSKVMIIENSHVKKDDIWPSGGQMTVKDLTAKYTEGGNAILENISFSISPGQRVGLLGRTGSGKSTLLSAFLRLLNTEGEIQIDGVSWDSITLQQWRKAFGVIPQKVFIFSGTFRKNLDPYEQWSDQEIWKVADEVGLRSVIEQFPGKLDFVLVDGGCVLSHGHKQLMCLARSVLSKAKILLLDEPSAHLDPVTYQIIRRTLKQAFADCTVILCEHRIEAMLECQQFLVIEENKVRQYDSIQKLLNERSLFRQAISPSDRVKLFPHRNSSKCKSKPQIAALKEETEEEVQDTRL
Description: Primary lung epithelial cells homozygous for the Cystic Fibrosis-causing ΔF508 mutation were differentiated for a minimum of 4 weeks in an air-liquid interface on Costar 24 well HTS filter plates prior to the equivalent current (Ieq) measurements. Cells were apically mucus-washed for 30 minutes 24 h prior to treatment with compounds. The basolateral media was removed and replaced with media containing the compound of interest diluted to its final concentration from DMSO stocks. Treated cells were incubated at 37° C. and 5% CO2 for 24 hours. At the end of the treatment period, the media was changed to the Ieq experimental solution for 30 minutes before the experiment and plates are maintained in a CO2-free incubator during this period. The plates containing the cells were then placed in pre-warmed heating blocks at 36° C.±0.5 for 15 minutes before measurements are taken. The transepithelial voltage (VT) and conductance (GT) were measured using a custom 24 channel current clamp (TECC-24) with 24 well electrode manifold. The Ieq assay measurements were made following additions with standardized time periods: • 1. The baseline VT and GT values were measured for approximately 20 minutes. • 2. Benzamil was added to block ENaC for 15 minutes. • 3. Forskolin plus VX-770 were added to maximally activate ΔF508-CFTR for 27 minutes. • 4. Bumetanide was added to inhibit the NaK2Cl cotransporter and shut-off secretion of chloride.
The activity data captured was the area under the curve (AUC) for the traces of the equivalent chloride current. The AUC was collected from the time of the forskolin/VX-770 addition until the inhibition by bumetanide addition. Correction in response to compound treatment was scored as the increase in the AUC for compound-treated samples over that of vehicle-treated samples. The results are shown below in Table 2 (++indicates activity ≧25% run at 10 uM of VX-809 at 1 uM; +indicates activity 10 to <25% run at 10 uM of VX-809 at 1 uM; ** indicates activity ≧200% of VX-809 (1 uM) with compound at 10 uM and VX-809 at 1 uM; * indicates activity 100-200% of VX-809 (1 uM) with compound at 10 uM and VX-809 at 1 uM)

ΔF508-CFTR [2] = molecular target: T1, ΔF508-CFTR; assay: Ussing measurements; type: cell-based; conditions: CFTRinh-172 inhibitable short-circuit current, primary hBE homozygous ΔF508, 24 h treatment
Description: As discussed above, Ussing measurements can be used to measure CFTR activity. In this method, primary lung epithelial cells (hBEs) homozygous for the Cystic Fibrosis-causing ΔF508 mutation are differentiated for a minimum of 4 weeks in an air-liquid interface on SnapWell filter plates prior to the Ussing measurements. Cells are apically mucus-washed for 30 minutes prior to treatment with compounds. The basolateral media is removed and replaced with media containing the compound of interest diluted to its final concentration from DMSO stocks. Treated cells are incubated at 37° C. and 5% CO2 for 24 hours. At the end of the treatment period, the cells on filters are transferred to the Ussing chamber and equilibrated for 30 minutes. The short-circuit current is measured in voltage clamp-mode (Vhold=0 mV), and the entire assay is conducted at a temperature of 36° C.-36.5° C. Once the voltages stabilized, the chambers are clamped, and data is recorded by pulse readings every 5 seconds. Following baseline current stabilization, the following additions can be applied and the changes in current and resistance of the cells can be monitored: • 1. Benzamil to the apical chamber to inhibit ENaC sodium channel. • 2. Forskolin to both chambers to activate ΔF508-CFTR by phosphorylation. • 3. Genistein to both chambers to potentiate ΔF508-CFTR channel opening. • 4. CFTRinh-172 to the apical chamber to inhibit ΔF508-CFTR Cl-conductance.
The inhibitable current (that current that is blocked by CFTRinh-172) is measured as the specific activity of the ΔF508-CFTR channel, and increases in response to compound in this activity over that observed in vehicle-treated samples are identified as the correction of ΔF508-CFTR function imparted by the compound tested.

[3] = compound alone at 10 uM, relative to VX-809 at 1 uM
[4] = compound at 10 uM together with VX-809 at 1 uM, relative to VX-809 (1 uM)

SMILES	Ieq Activity (ΔF508-CFTR [1]; [3])	Ieq Activity (ΔF508-CFTR [1]; [4])	Ussing (ΔF508-CFTR [2]; [3])	Ussing (ΔF508-CFTR [2]; [4])
O=C(NCCc1nnc(CO)s1)c1cc(-c2ccccc2)on1 [Compound A2, N-(2-(5-(hydroxymethyl)-1,3,4-thiadiazol-2-yl)ethyl)-5-phenylisoxazole-3-carboxamide]	++ (++indicates activity ≧25% run at 10 uM of VX-809 at 1 uM)	** (** indicates activity ≧200% of VX-809 (1 uM) with compound at 10 uM and VX-809 at 1 uM)	++ (++indicates activity ≧25% run at 10 uM of VX-809 at 1 uM)	** (** indicates activity ≧200% of VX-809 (1 uM) with compound at 10 uM and VX-809 at 1 uM)
C[C@H](O)c1nnc(CCNC(=O)c2cc(-c3ccccc3)on2)s1 [Compound A17, (S)-N-(2-(5-(1-hydroxyethyl)-1,3,4-thiadiazol-2-yl)ethyl)-5-phenylisoxazole-3-carboxamide]	–	** (** indicates activity ≧200% of VX-809 (1 uM) with compound at 10 uM and VX-809 at 1 uM)	–	** (** indicates activity ≧200% of VX-809 (1 uM) with compound at 10 uM and VX-809 at 1 uM)
C[C@H](O)c1nnc(CCNC(=O)c2cc(-c3ccccc3)on2)o1 [Compound A18, (S)-N-(2-(5-(1-hydroxyethyl)-1,3,4-oxadiazol-2-yl)ethyl)-5-phenylisoxazole-3-carboxamide]	–	** (** indicates activity ≧200% of VX-809 (1 uM) with compound at 10 uM and VX-809 at 1 uM)	–	** (** indicates activity ≧200% of VX-809 (1 uM) with compound at 10 uM and VX-809 at 1 uM)
O=C(NCCc1nnc([C@H](O)CO)o1)c1cc(-c2ccccc2)on1 [Compound A19, (R)-N-(2-(5-(1,2-dihydroxyethyl)-1,3,4-oxadiazol-2-yl)ethyl)-5-phenylisoxazole-3-carboxamide]	–	** (** indicates activity ≧200% of VX-809 (1 uM) with compound at 10 uM and VX-809 at 1 uM)	–	** (** indicates activity ≧200% of VX-809 (1 uM) with compound at 10 uM and VX-809 at 1 uM)
O=C(NCCc1nnc([C@H](O)CO)s1)c1cc(-c2ccccc2)on1 [Compound A20, (R)-N-(2-(5-(1,2-dihydroxyethyl)-1,3,4-thiadiazol-2-yl)ethyl)-5-phenylisoxazole-3-carboxamide]	–	** (** indicates activity ≧200% of VX-809 (1 uM) with compound at 10 uM and VX-809 at 1 uM)	–	** (** indicates activity ≧200% of VX-809 (1 uM) with compound at 10 uM and VX-809 at 1 uM)
O=C(NCCc1nnc([C@@H](O)CO)s1)c1cc(-c2ccccc2)on1 [Compound A21, (S)-N-(2-(5-(1,2-dihydroxyethyl)-1,3,4-thiadiazol-2-yl)ethyl)-5-phenyl isoxazole-3-carboxamide]	–	** (** indicates activity ≧200% of VX-809 (1 uM) with compound at 10 uM and VX-809 at 1 uM)	–	** (** indicates activity ≧200% of VX-809 (1 uM) with compound at 10 uM and VX-809 at 1 uM)
O=C(NCCc1nnc([C@@H](O)CO)o1)c1cc(-c2ccccc2)on1 [Compound A22, (S)-N-(2-(5-(1,2-dihydroxyethyl)-1,3,4-oxadiazol-2-yl)ethyl)-5-phenyl isoxazole-3-carboxamide carboxamide]	–	** (** indicates activity ≧200% of VX-809 (1 uM) with compound at 10 uM and VX-809 at 1 uM)	–	** (** indicates activity ≧200% of VX-809 (1 uM) with compound at 10 uM and VX-809 at 1 uM)

Source: US9790219B2, “Compounds, compositions, and methods for increasing CFTR activity” (Proteostasis Therapeutics, Inc., priority 2014, dated 2017)
